Data reported in patent EP0891975A1 (priority 1996, dated 1997).
Where two headings read alike, the source gives them in different places.

Key:
[1] = tested on: Rice Blast Fungus (Magnaporthe grisea); type: in vivo; conditions: 250 ppm, 10 ml/pot foliar spray, rice (Akinishiki), lesions per leaf counted vs untreated pot after 24 hours moist chamber and 7 days greenhouse
[2] = tested on: Tomato Late Blight Fungus (Phytophthora infestans); type: in vivo; conditions: 250 ppm, 10 ml per pot foliar spray, tomato (Red Cherry), degree of disease vs untreated pot after 24 hours moist chamber and 4 days greenhouse
[3] = Acute toxicity in mice in single oral administration; conditions: mouse, in vivo, 30 mg/kg, 30 mg-active ingredient/kg, five 6-week-old CD-1 male mice, 7 days after administration, read-out: Death Rate (%)
Description: Acute toxicity (p.o.) in mice of compound Nos. 8, 10, 13, 22, 23, 38, 42, and 52 was examined as follows. For comparison, compounds (IV), (V) and (VI) disclosed in JP-A-2-62876 were tested similarly.
Compound Nos. 8, 10, 22, 23, 38, and 42 (30 mg each) were each suspended in 10 ml of a 0.5% CMC-Na aqueous solution. Compound Nos. 13 and 52 and compounds (IV), (V) and (VI) (30 mg each) were each suspended in 10 ml of a 0.5% tragacanth gum aqueous solution. The suspension was orally given to a group each consisting of five 6-week-old CD-1 male mice (available from Charles River) at a dose of 10 ml-suspension per kg of the body weight. The number of dead mice was counted after 7 days from the administration to obtain a death rate.

[4] = tested on: Larvae of Plutella xylostella; assay: Insecticidal effect on larvae of Plutella xylostella (cabbage leaf disc dip); type: in vivo; conditions: foliar, 96 h, read-out: Death Rate (%)
Description: The agricultural and horticultural pesticide of the present invention (a wettable powder) was obtained in accordance with Formulation Example 1 and diluted with water to prepare a suspension having a prescribed concentration. A disc (6 cm in diameter) cut out of a cabbage leaf was soaked in the suspension for 1 minute, air-dried, and placed in a plastic cup (inner diameter: 7 cm). Five 3-instar larvae of Plutella xylostella were put in the cup (duplicates at one concentration). Four days later, the death and agony of the larvae were examined to obtain a death rate (%) taking an agonizing insect as a 1/2 dead insect. The results obtained are shown in Table 5 (the compound numbers in Table 5 correspond to those in Tables 1, 2 and 3).

[5] = tested on: Larvae of Nilaparvata lugens; assay: Insecticidal effect on larvae of Nilaparvata lugens (spray on rice seedling in glass cylinder); type: in vivo; conditions: 120 h, read-out: Death Rate (%)
Description: A rice seedling was setted in a glass cylinder (inner diameter: 3 cm; length: 17 cm), and five 4th instar larvae of Nilaparvata lugens were set free therein. The agricultural and horticultural pesticide of the present invention (an emulsifiable concentrate) was prepared in accordance with Formulation Example 3 and diluted with water, and 0.5 ml of the resulting emulsion was sprayed in the cylinder by means of a spray tower (manufactured by Mizuho Rika) (duplicates at 1 concentration). Five days after the treatment, the mortality and agony of the larvae were examined to obtain a death rate (%) taking an agonizing insect as a 1/2 dead insect. The results obtained are shown in Table 4 (the compound numbers in Table 4 correspond to those in Tables 1, 2 and 3).

[6] = 500 ppm, emulsifiable concentrate diluted with water, 4th instar larvae, five days after treatment, agonizing insect counted as 1/2 dead
[7] = 500 ppm, wettable powder suspension, 3-instar larvae, four days later, agonizing insect counted as 1/2 dead

| Compound | Control Value (%) [1] [%] | Control Value (%) [2] [%] | mortality at 168 h [3] [%] | mortality at 500 ppm [4] [%] | mortality at 500 ppm [5] [%] | mortality at 500 ppm [5, 6] [%] | mortality at 500 ppm [4, 7] [%] |
| --- | --- | --- | --- | --- | --- | --- | --- |
| Cc1nn(C)c(C(=O)NCc2ccc(Oc3cccc(C(F)(F)F)c3)nc2)c1C [Compound No. 10, N-[6-(3-Trifluoromethylphenoxy)-3-pyridylmethyl]-1,3,4-trimethyl-5-pyrazolecarboxamide] | 89 | 100 | 0 | 100 | 100 |  |  |
| Cc1nn(C)c(C(=O)NCc2ccc(Oc3cccc(Cl)c3)nc2)c1C [compound 8] |  | 100 | 0 |  |  | 100 |  |
| CCc1nn(C)c(C(=O)NCc2ccc(Oc3cccc(C(F)(F)F)c3)nc2)c1Cl [compound 13] | 87 | 85 | 0 |  |  | 100 | 100 |
| Cc1nn(C)c(C(=O)NCc2ccc(Oc3ccc4ccccc4c3)nc2)c1Cl [compound 22] |  | 100 | 0 |  |  |  |  |
| Cc1nn(C)c(C(=O)NCc2ccc(Oc3ccc4ccccc4c3)nc2)c1Br [compound 23] |  |  | 0 |  |  |  |  |
| CCc1nn(C)c(C(=O)NCc2ccc(Oc3ccc4ccccc4c3)nc2)c1Cl [compound 38] | 100 |  | 0 |  |  | 90 | 90 |
| Cn1nc2c(c1C(=O)NCc1ccc(Oc3ccc4ccccc4c3)nc1)CCC2 [compound 42] |  | 100 | 0 |  |  | 90 | 100 |
| COc1c(C)nn(C)c1C(=O)N(Cc1ccc(Oc2ccc3ccccc3c2)nc1)C(C)=O [compound 52] |  | 100 | 0 |  |  | 90 |  |
